Test results: patent publication US20240384350A1, “METHODS OF TREATING CANCER WITH KINASE INHIBITORS” (BOARD OF REGENTS, THE UNIVERSITY OF TEXAS SYSTEM, priority 2021, published 2024)

Legend:
Experiment in all cases: Ba/F3 drug screening, Cell Titer Glo, IC50 Mut/WT
Type in all cases: cell-based
EGFR L858R = molecular target: T1, EGFR L858R (Homo sapiens, UniProt P00533, L858R); settings: Classical-Like, 72 hours
T1 construct: expressed in transfected cells; host or cells: Ba/F3 cells, retroviral pBabe-Puro vector

EGFR K754E = molecular target: T2, EGFR K754E (Homo sapiens, UniProt P00533, K754E); settings: Classical-Like, 72 hours
T2 construct: expressed in transfected cells; host or cells: Ba/F3 cells, retroviral pBabe-Puro vector
Description: Data represent the ratio of the IC50 value for a given TKI for cells with a classical-like EGFR mutation to the IC50 value for cells with wildtype EGFR.
(§1) Ba/F3 cell generation, drug screening, and IC50 approximations. Ba/F3 cells were obtained as a gift from Dr. Gordon Mills (MD Anderson Cancer Center), and maintained in RPMI (Sigma) containing 10% FBS, 1% penicillin/streptomycin, and 10 ng/ml recombinant mIL-3 (R&D Biosystems). To establish stable Ba/F3 cell lines, Ba/F3 cells were transduced with retroviruses containing mutant EGFR plasmids for 12-24 hours.
After 48-72 hours of transduction, 2 μg/ml puromycin (Invitrogen) was added to Ba/F3 cell lines in complete RPMI. To select for EGFR positive cell lines, cells were stained with PE-EGFR (Biolegend) and sorted by FACS. After sorting, EGFR positive cells were maintained in RPMI containing 10% FBS, 1% penicillin/streptomycin, and 1 ng/ml EGF to support cell viability. […] Shortly, cells were plated in 384-well plates (Greiner Bio-One) at 2000-3000 cells per well in technical triplicate. Seven different concentrations of TKIs or DMSO vehicle were added to reach a final volume of 40 μL per well. After 72 hours, 11 μL of Cell Titer Glo (Promega) was added to each well. Plates were incubated for a minimum of 10 minutes, and bioluminescence was determined using a FLUOstar OPTIMA plate reader (BMG LABTECH). Raw bioluminescence values were normalized to DMSO control treated cells, and values were plotted in GraphPad Prism. […] Drug screens were performed in technical triplicate on each plate and either duplicate or triplicate biological replicates.

EGFR A767insASV = molecular target: T3, EGFR A767insASV (Homo sapiens, UniProt P00533, DUP767-769); settings: Ex20, 72 hours
T3 construct: expressed in transfected cells; host or cells: Ba/F3 cells, retroviral pBabe-Puro vector

EGFR G719A T790M = molecular target: T4, EGFR G719A T790M (Homo sapiens, UniProt P00533, G719A/T790M); settings: T790M-like-3S, 72 hours
T4 construct: expressed in transfected cells; host or cells: Ba/F3

EGFR S768I/T790M = molecular target: T5, EGFR S768I/T790M (Homo sapiens, UniProt P00533, S768I/T790M); settings: T790M-like-3S, 72 hours
T5 construct: expressed in transfected cells; host or cells: Ba/F3

EGFR G724S T790M = molecular target: T6, EGFR G724S T790M (Homo sapiens, UniProt P00533, G724S/T790M); settings: T790M-like-3R, 72 hours
T6 construct: expressed in transfected cells; host or cells: Ba/F3

EGFR L858R T790M L718V = molecular target: T7, EGFR L858R T790M L718V (Homo sapiens, UniProt P00533, L718V/L858R/T790M); settings: T790M-like-3R, 72 hours
T7 construct: expressed in transfected cells; host or cells: Ba/F3

EGFR Ex19del T790M C797S = molecular target: T8, EGFR Ex19del T790M C797S (Homo sapiens, UniProt P00533, C797S/DEL746-750/T790M); settings: T790M-like-3R, 72 hours
T8 construct: expressed in transfected cells; host or cells: Ba/F3
Description: Data represent the ratio of the IC50 value for a given TKI for cells with a T790M-like-3R EGFR mutation to the IC50 value for cells with wildtype EGFR.
as §1
After 48-72 hours of transduction, 2 μg/ml puromycin (Invitrogen) was added to Ba/F3 cell lines in complete RPMI. To select for EGFR positive cell lines, cells were stained with PE-EGFR (Biolegend) and sorted by FACS. After sorting, EGFR positive cells were maintained in RPMI containing 10% FBS, 1% penicillin/streptomycin, and 1 ng/ml EGF to support cell viability. […] Shortly, cells were plated in 384-well plates (Greiner Bio-One) at 2000-3000 cells per well in technical triplicate. Seven different concentrations of TKIs or DMSO vehicle were added to reach a final volume of 40 μL per well. After 72 hours, 11 μL of Cell Titer Glo (Promega) was added to each well. Plates were incubated for a minimum of 10 minutes, and bioluminescence was determined using a FLUOstar OPTIMA plate reader (BMG LABTECH). Raw bioluminescence values were normalized to DMSO control treated cells, and values were plotted in GraphPad Prism. […] Drug screens were performed in technical triplicate on each plate and either duplicate or triplicate biological replicates. […] Statistical differences between groups were determined by ANOVA as described in the figure legends.

EGFR E709_T710del insD = molecular target: T9, EGFR E709_T710del insD (Homo sapiens, UniProt P00533, DEL709-709/T710D); settings: PACC; E709_T710del insD; Ba/F3; 72 hours
T9 construct: expressed in transfected cells; host or cells: Ba/F3

EGFR E709K G719S = molecular target: T10, EGFR E709K G719S (Homo sapiens, UniProt P00533, E709K/G719S); settings: PACC; E709K G719S; Ba/F3; 72 hours
T10 construct: expressed in transfected cells; host or cells: Ba/F3

EGFR G719A = molecular target: T11, EGFR G719A (Homo sapiens, UniProt P00533, G719A); settings: PACC; G719A; Ba/F3; 72 hours
T11 construct: expressed in transfected cells; host or cells: Ba/F3
Description: (§2) Data represent the ratio of the IC50 value for a given TKI for cells with a PACC EGFR mutation to the IC50 value for cells with wildtype EGFR.
as §1
(§3) After 48-72 hours of transduction, 2 μg/ml puromycin (Invitrogen) was added to Ba/F3 cell lines in complete RPMI. To select for EGFR positive cell lines, cells were stained with PE-EGFR (Biolegend) and sorted by FACS. After sorting, EGFR positive cells were maintained in RPMI containing 10% FBS, 1% penicillin/streptomycin, and 1 ng/ml EGF to support cell viability. Drug screening was performed as previously described^41,42. Shortly, cells were plated in 384-well plates (Greiner Bio-One) at 2000-3000 cells per well in technical triplicate. Seven different concentrations of TKIs or DMSO vehicle were added to reach a final volume of 40 μL per well. After 72 hours, 11 μL of Cell Titer Glo (Promega) was added to each well. Plates were incubated for a minimum of 10 minutes, and bioluminescence was determined using a FLUOstar OPTIMA plate reader (BMG LABTECH). Raw bioluminescence values were normalized to DMSO control treated cells, and values were plotted in GraphPad Prism. […] Drug screens were performed in technical triplicate on each plate and either duplicate or triplicate biological replicates.

EGFR G724S = molecular target: T12, EGFR G724S (Homo sapiens, UniProt P00533, G724S); settings: PACC; G724S; Ba/F3; 72 hours
T12 construct: expressed in transfected cells; host or cells: Ba/F3
Description: as §2, §1, §3

EGFR I740dupIPVAK = settings: PACC; I740dupIPVAK; Ba/F3; 72 hours
Description: as §2, §1, §3

EGFR L747S = molecular target: T13, EGFR L747S (Homo sapiens, UniProt P00533, L747S); settings: PACC; L747S; Ba/F3; 72 hours
T13 construct: expressed in transfected cells; host or cells: Ba/F3
Description: as §2, §1, §3

EGFR S768I = molecular target: T14, EGFR S768I (Homo sapiens, UniProt P00533, S768I); settings: PACC; S768I; Ba/F3; 72 hours
T14 construct: expressed in transfected cells; host or cells: Ba/F3

EGFR V769L = molecular target: T15, EGFR V769L (Homo sapiens, UniProt P00533, V769L); settings: PACC; V769L; Ba/F3; 72 hours
T15 construct: expressed in transfected cells; host or cells: Ba/F3

EGFR V774M = molecular target: T16, EGFR V774M (Homo sapiens, UniProt P00533, V774M); settings: PACC; V774M; Ba/F3; 72 hours
T16 construct: host or cells: Ba/F3

EGFR R776C = molecular target: T17, EGFR R776C (Homo sapiens, UniProt P00533, R776C); settings: PACC; R776C; Ba/F3; 72 hours
T17 construct: host or cells: Ba/F3
Description: as §2, §1, §3

EGFR Ex19del G724S = molecular target: T18, EGFR Ex19del G724S (Homo sapiens, UniProt P00533, DEL746-750/G724S); settings: PACC; Ex19del G724S; Ba/F3; 72 hours
T18 construct: expressed in transfected cells; host or cells: Ba/F3

EGFR L858R/L792H = molecular target: T19, EGFR L858R/L792H (Homo sapiens, UniProt P00533, L792H/L858R); settings: PACC; L858R/L792H; Ba/F3; 72 hours
T19 construct: expressed in transfected cells; host or cells: Ba/F3

EGFR Ex19del G796S = molecular target: T20, EGFR Ex19del G796S (Homo sapiens, UniProt P00533, DEL746-750/G796S); settings: PACC; Ex19del G796S; Ba/F3; 72 hours
T20 construct: expressed in transfected cells; host or cells: Ba/F3

EGFR Ex19del/C797S = molecular target: T21, EGFR Ex19del/C797S (Homo sapiens, UniProt P00533, C797S/DEL746-750); settings: PACC; Ex19del/C797S; Ba/F3; 72 hours
T21 construct: expressed in transfected cells; host or cells: Ba/F3

EGFR Ex19del L718V = molecular target: T22, EGFR Ex19del L718V (Homo sapiens, UniProt P00533, DEL746-750/L718V); settings: PACC; Ex19del L718V; Ba/F3; 72 hours
T22 construct: expressed in transfected cells; host or cells: Ba/F3
Description: as §2, §1, §3

EGFR Ex19del L718Q = molecular target: T23, EGFR Ex19del L718Q (Homo sapiens, UniProt P00533, DEL746-750/L718Q); settings: PACC; Ex19del L718Q; Ba/F3; 72 hours
T23 construct: expressed in transfected cells; host or cells: Ba/F3

EGFR L858R G724S = molecular target: T24, EGFR L858R G724S (Homo sapiens, UniProt P00533, G724S/L858R); settings: PACC; L858R G724S; Ba/F3; 72 hours
T24 construct: expressed in transfected cells; host or cells: Ba/F3 (retroviral transduction, pBabe-Puro based vectors)
Description: as §2, §1, §3

EGFR Ex19del T854I = molecular target: T25, EGFR Ex19del T854I (Homo sapiens, UniProt P00533, DEL746-750/T854I); settings: PACC; Ex19del T854I; Ba/F3; 72 hours
T25 construct: expressed in transfected cells; host or cells: Ba/F3 (retroviral transduction, pBabe-Puro based vectors)
Description: as §2, §1, §3

Row | ratio of IC50 for cells with mutant EGFR to IC50 for cells with wildtype EGFR (Mut/WT) (EGFR L858R) | ratio of IC50 for cells with mutant EGFR to IC50 for cells with wildtype EGFR (Mut/WT) (EGFR K754E) | ratio of IC50 for cells with mutant EGFR to IC50 for cells with wildtype EGFR (Mut/WT) (EGFR A767insASV) | ratio of IC50 for cells with mutant EGFR to IC50 for cells with wildtype EGFR (Mut/WT) (EGFR G719A T790M) | ratio of IC50 for cells with mutant EGFR to IC50 for cells with wildtype EGFR (Mut/WT) (EGFR S768I/T790M) | ratio of IC50 for cells with mutant EGFR to IC50 for cells with wildtype EGFR (Mut/WT) (EGFR G724S T790M) | ratio of IC50 for cells with mutant EGFR to IC50 for cells with wildtype EGFR (Mut/WT) (EGFR L858R T790M L718V) | ratio of IC50 for cells with mutant EGFR to IC50 for cells with wildtype EGFR (Mut/WT) (EGFR Ex19del T790M C797S) | ratio of IC50 for cells with mutant EGFR to IC50 for cells with wildtype EGFR (Mut/WT) (EGFR E709_T710del insD) | ratio of IC50 for cells with mutant EGFR to IC50 for cells with wildtype EGFR (Mut/WT) (EGFR E709K G719S) | ratio of IC50 for cells with mutant EGFR to IC50 for cells with wildtype EGFR (Mut/WT) (EGFR G719A) | ratio of IC50 for cells with mutant EGFR to IC50 for cells with wildtype EGFR (Mut/WT) (EGFR G724S) | ratio of IC50 for cells with mutant EGFR to IC50 for cells with wildtype EGFR (Mut/WT) (EGFR I740dupIPVAK) | ratio of IC50 for cells with mutant EGFR to IC50 for cells with wildtype EGFR (Mut/WT) (EGFR L747S) | ratio of IC50 for cells with mutant EGFR to IC50 for cells with wildtype EGFR (Mut/WT) (EGFR S768I) | ratio of IC50 for cells with mutant EGFR to IC50 for cells with wildtype EGFR (Mut/WT) (EGFR V769L) | ratio of IC50 for cells with mutant EGFR to IC50 for cells with wildtype EGFR (Mut/WT) (EGFR V774M) | ratio of IC50 for cells with mutant EGFR to IC50 for cells with wildtype EGFR (Mut/WT) (EGFR R776C) | ratio of IC50 for cells with mutant EGFR to IC50 for cells with wildtype EGFR (Mut/WT) (EGFR Ex19del G724S) | ratio of IC50 for cells with mutant EGFR to IC50 for cells with wildtype EGFR (Mut/WT) (EGFR L858R/L792H) | further results | Structure (SMILES)
1 | 0.002159 | 0.03231 | 3.057 | 0.9195 | 1.282 | 12.05 | 20.65 | 38.03 | 0.08391 | 0.001358 | 0.001888 | 0.2379 | 0.01376 | 0.006377 | 17.66 | 0.1402 | 0.04513 | 0.1215 | 0.1707 | 0.002838 | ratio of IC50 for cells with mutant EGFR to IC50 for cells with wildtype EGFR (Mut/WT) (EGFR Ex19del G796S): 0.2371; ratio of IC50 for cells with mutant EGFR to IC50 for cells with wildtype EGFR (Mut/WT) (EGFR Ex19del/C797S): 0.01762; ratio of IC50 for cells with mutant EGFR to IC50 for cells with wildtype EGFR (Mut/WT) (EGFR Ex19del L718V): 0.0061; ratio of IC50 for cells with mutant EGFR to IC50 for cells with wildtype EGFR (Mut/WT) (EGFR Ex19del L718Q): 0.03226; ratio of IC50 for cells with mutant EGFR to IC50 for cells with wildtype EGFR (Mut/WT) (EGFR L858R G724S): 0.0005712; ratio of IC50 for cells with mutant EGFR to IC50 for cells with wildtype EGFR (Mut/WT) (EGFR Ex19del T854I): 0.4127 | COc1cc2ncnc(Nc3ccc(F)c(Cl)c3)c2cc1NC(=O)/C=C/CN1CCCCC1 [Dacomitinib]
2 | 0.1181 | 0.00723 | 0.9945 | 0.6778 | 60.19 | 1.041 | 151.6 | 33.62 | 0.782 | 0.06517 | 0.01637 | 8.499 | 0.5725 | 0.1733 | 0.3863 | 0.3024 | 0.2507 | 0.02009 | 2.658 | 0.346 | ratio of IC50 for cells with mutant EGFR to IC50 for cells with wildtype EGFR (Mut/WT) (EGFR Ex19del G796S): 25.15; ratio of IC50 for cells with mutant EGFR to IC50 for cells with wildtype EGFR (Mut/WT) (EGFR Ex19del/C797S): 0.2272; ratio of IC50 for cells with mutant EGFR to IC50 for cells with wildtype EGFR (Mut/WT) (EGFR Ex19del L718V): 0.1214; ratio of IC50 for cells with mutant EGFR to IC50 for cells with wildtype EGFR (Mut/WT) (EGFR Ex19del L718Q): 0.09651; ratio of IC50 for cells with mutant EGFR to IC50 for cells with wildtype EGFR (Mut/WT) (EGFR L858R G724S): 0.02628; ratio of IC50 for cells with mutant EGFR to IC50 for cells with wildtype EGFR (Mut/WT) (EGFR Ex19del T854I): 0.7019 | CN(C)C/C=C/C(=O)Nc1cc2c(Nc3ccc(Cl)c(Br)c3)ncnc2cn1 [Tarlox-TKI]
